Earlier results, collected in publication PMC10517971, “An inverse agonist of orphan receptor GPR61 acts by a G protein-competitive allosteric mechanism” (Nature Communications, 2023).

How the values were obtained:
[1] = test system: GPR61; parameters: method as in PMID 14607265, PMID 31352450; conditions: cited from earlier work
[2] = cited from earlier work

## CCCCCCCCCOc1ccc2[nH]cc(CCN)c2c1 [Compound 5-NOT, 5-nonyloxy-tryptamine]
[1]
  potency as GPR61 inverse agonist: low potency
  selectivity: lack of selectivity
[2]
  solubility: low solubility
